Key:
Type in all cases: in vivo
rape (Brassica napus) = assay: Test B pre-/postemergence; design: key: 0 is no effect; 10 is complete control
Procedure, shortened: (§1)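 Seeds were planted and sprayed preemergence, while plants at 2 to 18 cm (1- to 4-leaf stage) were sprayed postemergence at the same time, with test chemical in a non-phytotoxic solvent mixture containing surfactant. After twelve to sixteen days in a greenhouse, injury was rated visually against untreated controls on a 0–10 scale.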

[1] = test system: giant foxtail (Setaria faberii); assay: Test B pre-/postemergence; design: key: 0 is no effect; 10 is complete control
Procedure, shortened: as §1

corn (Zea mays) = assay: Test B pre-/postemergence; design: key: 0 is no effect; 10 is complete control; settings: for Corn plant response rating: Preemergence
Procedure, shortened: as §1

[2] = test system: sugar beet (Beta vulgaris); assay: Test B pre-/postemergence; design: key: 0 is no effect; 10 is complete control
Procedure, shortened: as §1

[3] = test system: broadleaf signalgrass (Brachiaria decumbens); assay: Test B pre-/postemergence; design: key: 0 is no effect; 10 is complete control; settings: for B. signalgrass plant response rating: Preemergence
Procedure, shortened: as §1

soybean (Glycine max) = assay: Test B pre-/postemergence; design: key: 0 is no effect; 10 is complete control
Procedure, shortened: as §1

[4] = test system: purple nutsedge (Cyperus rotundus); assay: Test B pre-/postemergence; design: key: 0 is no effect; 10 is complete control; settings: Postemergence
Procedure, shortened: as §1

[5] = test system: cocklebur (Xanthium strumarium); assay: Test B pre-/postemergence; design: key: 0 is no effect; 10 is complete control; settings: for Cocklebur plant response rating: Preemergence
Procedure, shortened: as §1

[6] = test system: blackgrass (Alopecurus myosuroides); assay: Test B pre-/postemergence; design: key: 0 is no effect; 10 is complete control; settings: for Blackgrass plant response rating: Preemergence
Procedure, shortened: as §1

[7] = test system: momingglory (Ipomoea hederacea); assay: Test B pre-/postemergence; design: key: 0 is no effect; 10 is complete control
Procedure, shortened: as §1

[8] = test system: wheat (Triticum aestivum); assay: Test B pre-/postemergence; design: key: 0 is no effect; 10 is complete control
Procedure, shortened: as §1

[9] = test system: pigweed (Amaranthus retroflexus); assay: Test B pre-/postemergence; design: key: 0 is no effect; 10 is complete control
Procedure, shortened: as §1

[10] = test system: crabgrass (Digitaria sanguinalis); assay: Test B pre-/postemergence; design: key: 0 is no effect; 10 is complete control; settings: for Crabgrass plant response rating: Preemergence
Procedure, shortened: as §1

[11] = test system: velvetleaf (Abutilon theophrasti); assay: Test B pre-/postemergence; design: key: 0 is no effect; 10 is complete control
Procedure, shortened: as §1

[12] = test system: bedstraw (Galium aparine); assay: Test B pre-/postemergence; design: key: 0 is no effect; 10 is complete control; settings: for Bedstraw plant response rating: Preemergence
Procedure, shortened: as §1

wild oat (Avena fatua) = assay: Test B pre-/postemergence; design: key: 0 is no effect; 10 is complete control
Procedure, shortened: as §1

[13] = test system: smallflower flatsedge (Cyperus difformis); assay: Test B flood test
Procedure, shortened: (§2)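 Plants were grown to the 2-leaf stage before treatment with test chemical, then held in a greenhouse for twelve to sixteen days. Injury was visually rated against untreated controls on a 0–10 scale, where 0 is no effect and 10 is complete control.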

[14] = test system: duck salad (Heteranthera limosa); assay: Test B flood test
Procedure, shortened: as §2

rice (Oryza sativa) = assay: Test B flood test
Procedure, shortened: as §2

[15] = test system: bamyardgrass (Echinochloa crus-galli); assay: Test B flood test
Procedure, shortened: as §2

[16] = Rate 250 g/ha, Postemergence (so in the source)
[17] = Rate 62 g/ha, Postemergence (flood test)
[18] = Rate 125 g/ha, Postemergence section (flood test species)
[19] = Rate 250 g/ha, Postemergence (flood test species)
[20] = Rate 125 g/ha, Postemergence, flood test

CCc1cnc(-c2ccc(C(F)(F)F)cc2)nc1Cc1cccc(OC(F)(F)F)c1 [Compound 41]
Plant response rating, Rape (rape (Brassica napus); Rate 62 g/ha, Postemergence): 10
Rape plant response rating (rape (Brassica napus); Rate 62 g/ha, Preemergence): 3
Rape plant response rating (rape (Brassica napus); Rate 125 g/ha, Postemergence): 10
Rape plant response rating (rape (Brassica napus); Rate 125 g/ha, Preemergence): 3
Plant response rating, Rape (rape (Brassica napus); Rate 250 g/ha, Postemergence): 10
Plant response rating, Rape (rape (Brassica napus); [16]): 4
Plant response rating, Giant foxtail ([1]; Rate 62 g/ha, Postemergence): 2
Giant foxtail plant response rating ([1]; Rate 62 g/ha, Preemergence): 6
Giant foxtail plant response rating ([1]; Rate 125 g/ha, Postemergence): 6
Giant foxtail plant response rating ([1]; Rate 125 g/ha, Preemergence): 9
Plant response rating, Giant foxtail ([1]; Rate 250 g/ha, Postemergence): 9
Plant response rating, Giant foxtail [1, 16]: 10
Plant response rating, Corn (corn (Zea mays); Rate 62 g/ha, Postemergence): 2
Corn plant response rating (corn (Zea mays); Rate 62 g/ha): 0
Plant response rating, Corn (corn (Zea mays); Rate 125 g/ha, Postemergence): 2
Corn plant response rating (corn (Zea mays); Rate 125 g/ha): 1
Plant response rating, Corn (corn (Zea mays); Rate 250 g/ha, Postemergence): 3
Plant response rating, Corn (corn (Zea mays); [16]): 1
Plant response rating, Sugarbeets ([2]; Rate 62 g/ha, Postemergence): 10
Sugarbeets plant response rating ([2]; Rate 62 g/ha, Preemergence): 3
Sugarbeets plant response rating ([2]; Rate 125 g/ha, Postemergence): 10
Plant response rating, Sugarbeets ([2]; Rate 125 g/ha, Preemergence): 6
Plant response rating, Sugarbeets ([2]; Rate 250 g/ha, Postemergence): 10
Plant response rating, Sugarbeets [2, 16]: 8
Plant response rating, B. signalgrass ([3]; Rate 62 g/ha, Postemergence): 2
B. signalgrass plant response rating ([3]; Rate 62 g/ha): 2
Plant response rating, B. signalgrass ([3]; Rate 125 g/ha, Postemergence): 3
B. signalgrass plant response rating ([3]; Rate 125 g/ha): 6
Plant response rating, B. signalgrass ([3]; Rate 250 g/ha, Postemergence): 6
Plant response rating, B. signalgrass ([3]; Rate 250 g/ha, Postemergence as printed in head r139 (second section for compounds 26-50)): 7
Plant response rating, Soybean (soybean (Glycine max); Rate 62 g/ha, Postemergence): 5
Soybean plant response rating (soybean (Glycine max); Rate 62 g/ha, Preemergence): 0
Soybean plant response rating (soybean (Glycine max); Rate 125 g/ha, Postemergence): 7
Plant response rating, Soybean (soybean (Glycine max); Rate 125 g/ha, Preemergence): 0
Plant response rating, Soybean (soybean (Glycine max); Rate 250 g/ha, Postemergence): 7
Plant response rating, Soybean (soybean (Glycine max); [16]): 1
Plant response rating, Nutsedge ([4]; Rate 62 g/ha): 0
Nutsedge plant response rating ([4]; Rate 125 g/ha): 0
Plant response rating, Nutsedge ([4]; Rate 250 g/ha): 0
Plant response rating, Cocklebur ([5]; Rate 62 g/ha, Postemergence): 7
Cocklebur plant response rating ([5]; Rate 62 g/ha): 0
Plant response rating, Cocklebur ([5]; Rate 125 g/ha, Postemergence): 8
Cocklebur plant response rating ([5]; Rate 125 g/ha): 0
Plant response rating, Cocklebur ([5]; Rate 250 g/ha, Postemergence): 9
Plant response rating, Cocklebur [5, 16]: 0
Plant response rating, Blackgrass ([6]; Rate 62 g/ha, Postemergence): 5
Blackgrass plant response rating ([6]; Rate 62 g/ha): 7
Plant response rating, Blackgrass ([6]; Rate 125 g/ha, Postemergence): 6
Blackgrass plant response rating ([6]; Rate 125 g/ha): 9
Plant response rating, Blackgrass ([6]; Rate 250 g/ha, Postemergence): 8
Plant response rating, Blackgrass [6, 16]: 10
Plant response rating, Morningglory ([7]; Rate 62 g/ha, Postemergence): 8
Morningglory plant response rating ([7]; Rate 62 g/ha, Preemergence): 1
Morningglory plant response rating ([7]; Rate 125 g/ha, Postemergence): 8
Morningglory plant response rating ([7]; Rate 125 g/ha, Preemergence): 1
Plant response rating, Morningglory ([7]; Rate 250 g/ha, Postemergence): 8
Plant response rating, Morningglory [7, 16]: 2
Wheat plant response rating ([8]; Rate 62 g/ha, Postemergence): 2
Wheat plant response rating ([8]; Rate 62 g/ha, Preemergence): 1
Wheat plant response rating ([8]; Rate 125 g/ha, Postemergence): 3
Plant response rating, Wheat ([8]; Rate 125 g/ha, Preemergence): 1
Plant response rating, Wheat ([8]; Rate 250 g/ha, Postemergence): 3
Plant response rating, Wheat [8, 16]: 2
Plant response rating, Redroot pigweed ([9]; Rate 62 g/ha, Postemergence): 9
Redroot pigweed plant response rating ([9]; Rate 62 g/ha, Preemergence): 4
Redroot pigweed plant response rating ([9]; Rate 125 g/ha, Postemergence): 10
Redroot pigweed plant response rating ([9]; Rate 125 g/ha, Preemergence): 10
Plant response rating, Redroot pigweed ([9]; Rate 250 g/ha, Postemergence): 10
Plant response rating, Redroot pigweed [9, 16]: 10
Plant response rating, Crabgrass ([10]; Rate 62 g/ha, Postemergence): 7
Crabgrass plant response rating ([10]; Rate 62 g/ha): 8
Plant response rating, Crabgrass ([10]; Rate 125 g/ha, Postemergence): 9
Crabgrass plant response rating ([10]; Rate 125 g/ha): 9
Plant response rating, Crabgrass ([10]; Rate 250 g/ha, Postemergence): 10
Plant response rating, Crabgrass [10, 16]: 9
Plant response rating, Velvetleaf ([11]; Rate 62 g/ha, Postemergence): 8
Velvetleaf plant response rating ([11]; Rate 62 g/ha, Preemergence): 1
Velvetleaf plant response rating ([11]; Rate 125 g/ha, Postemergence): 8
Plant response rating, Velvetleaf ([11]; Rate 125 g/ha, Preemergence): 3
Plant response rating, Velvetleaf ([11]; Rate 250 g/ha, Postemergence): 8
Plant response rating, Velvetleaf [11, 16]: 10
Plant response rating, Bedstraw ([12]; Rate 62 g/ha, Postemergence): 9
Bedstraw plant response rating ([12]; Rate 62 g/ha): 2
Plant response rating, Bedstraw ([12]; Rate 125 g/ha, Postemergence): 9
Bedstraw plant response rating ([12]; Rate 125 g/ha): 2
Plant response rating, Bedstraw ([12]; Rate 250 g/ha, Postemergence): 10
Plant response rating, Bedstraw [12, 16]: 8
Wild oats plant response rating (wild oat (Avena fatua); Rate 62 g/ha, Postemergence): 4
Wild oats plant response rating (wild oat (Avena fatua); Rate 62 g/ha, Preemergence): 4
Wild oats plant response rating (wild oat (Avena fatua); Rate 125 g/ha, Postemergence): 5
Plant response rating, Wild oats (wild oat (Avena fatua); Rate 125 g/ha, Preemergence): 9
Plant response rating, Wild oats (wild oat (Avena fatua); Rate 250 g/ha, Postemergence): 7
Plant response rating, Wild oats (wild oat (Avena fatua); [16]): 9
Plant response rating, S. Flatsedge [13, 17]: 5
S. Flatsedge plant response rating [13, 18]: 7
Plant response rating, S. Flatsedge [13, 19]: 9
Plant response rating, Ducksalad [14, 17]: 2
Plant response rating, Ducksalad [14, 20]: 3
Plant response rating, Ducksalad [14, 19]: 5
Plant response rating, Rice (rice (Oryza sativa); [17]): 5
Rice plant response rating (rice (Oryza sativa); [18]): 5
Plant response rating, Rice (rice (Oryza sativa); [19]): 6
Plant response rating, Barnyardgrass [15, 17]: 5
Plant response rating, Barnyardgrass [15, 20]: 5
Plant response rating, Barnyardgrass [15, 19]: 5

Source: patent US6525001B1, “Substituted pyrimidine and pyridine herbicides” (Mid-American Commercialization Corporation, priority 1997, dated 2003)
